Assay results: patent publication US12685740B2, “Compositions for the elimination of senescent cells” (Universität für Bodenkultur Wien, priority 2018, dated 2026)
Like-named read-outs stand apart in the source and are kept apart here.

How the values were obtained:
COX-1 = COX-1 (Homo sapiens, UniProt P23219); conditions: cited from earlier work
[1] = tested on: Doxorubicin-induced premature senescent HDF76, HDF85, HDF161; test: Rescue of senolytic effect by manipulating cPLA2 activity, viability after 72 hours (FIG. 18); type: cell-based
Procedure: Doxorubicin-induced premature senescent HDF76, HDF85, HDF161 (SIPS) and quiescent control cells (Q) were either treated for 72 hours with the combination of 1 μM ACSL4 inhibitor Triacsin C (TrC) and 1 μM ALOXS inhibitor MK886 alone or in addition with either 2.5 μM A23187 (cPLA2 activator) or 12.5 μM ASB14780 (cPLA2 inhibitor).
This was also the case, when the enzymatic activity of the cytosolic phospholipase A2 was reduced by the small molecule inhibitor ASB14780 (Sigma Aldrich, SML1913).

[2] = tested on: H2O2-induced premature senescent human dermal fibroblasts; test: Alamar blue viability assay, H2O2-induced premature senescent (SIPS) vs quiescent HDFs (FIG. 4); type: cell-based; conditions: single treatment, 9 days, SIPS vs quiescent (Q) HDFs
Procedure: Cells were seeded at a cell density of 2,800 cells/cm^2 one day prior to the treatment. The cells were treated nine times over a period of 11 days with 60-80 μM H2O2 supplemented to the media for one hour followed by a media change. Alternatively, depending on cell type cells were seeded at a cell density of 3,500-7,000 cells/cm^2 one day prior to the treatment and SIPS was induced with 100-200 nM doxorubicin ([…], Sigma-Aldrich) supplemented to the medium for 6 days. Induction of senescence was verified by SA-β-gal staining, p21 expression, and absence of BrdU incorporation. AnnexinV/PI staining was performed to assure that the treatment was non-lethal and SIPS HDFs were cultured and monitored for over 50 days to assure that the induced growth arrest was permanent ([…] et al. 2018). Alamar blue (DAL1100, Thermo Fisher Scientific) assay was performed according to the manufacturer's instructions. […] The control was treated with the respective concentration of the solvent (DMSO). Premature senescence was induced in HDF with chronic oxidative stress treatment (9 doses of H2O2 treatment over the period of 11 days). Quiescent cells were used as control. […] Subsequently, the viability was assessed using an alamar blue assay (Thermo Fisher Scientific).

[3] = tested on: Doxorubicin-induced premature senescent HDF161; test: Alamar blue viability assay, doxorubicin-induced SIPS vs quiescent HDF161 (FIG. 6); type: cell-based, human; conditions: for EC50: read-out: EC50 for senescent cells
Procedure: (§1) Cells were seeded at a cell density of 2,800 cells/cm^2 one day prior to the treatment. The cells were treated nine times over a period of 11 days with 60-80 μM H2O2 supplemented to the media for one hour followed by a media change. Alternatively, depending on cell type cells were seeded at a cell density of 3,500-7,000 cells/cm^2 one day prior to the treatment and SIPS was induced with 100-200 nM doxorubicin (D1515, Sigma-Aldrich) supplemented to the medium for 6 days. Induction of senescence was verified by SA-β-gal staining, p21 expression, and absence of BrdU incorporation. AnnexinV/PI staining was performed to assure that the treatment was non-lethal and SIPS HDFs were cultured and monitored for over 50 days to assure that the induced growth arrest was permanent (Terlecki-Zaniewicz et al. 2018).
(§2) Alamar blue (DAL1100, Thermo Fisher Scientific) assay was performed according to the manufacturer's instructions. Cells were treated with the respective substances for 9 days with a media change on day 0, 3 and 6. The control was treated with the respective concentration of the solvent (DMSO).
(§3) Premature senescence was induced in adult and foreskin HDFs with doxorubicin, which was supplemented to the growth media for 6 days. Treatment with senolytic substances started 8 days after completion of the SIPS treatment to allow for cells to enter senescence. Quiescent cells were used as control. Growth media was supplemented with senolytic substances for 9 days with media changes every 3 days. All samples, including the control, contained the same concentration of solvent (DMSO). Subsequently, the viability was assessed using an alamar blue assay (Thermo Fisher Scientific).

[4] = tested on: Doxorubicin-induced premature senescent HDF164; test: Alamar blue viability assay, doxorubicin-induced SIPS vs quiescent HDF164 (FIG. 7, 14); type: cell-based, human; conditions: for EC50: read-out: EC50 for senescent cells
Procedure: as §1, §2, §3
as §3, with “adult” for “adult and foreskin”, “allow” for “allow for”

[5] = tested on: Doxorubicin-induced premature senescent fHDF166; test: Alamar blue viability assay, doxorubicin-induced SIPS vs quiescent fHDF166 (FIG. 8, 15); type: cell-based, human; conditions: for EC50: read-out: EC50 for senescent cells
Procedure: as §1, §2, §3
as §3, with “In order to test this, premature” for “Premature”, “in” for “in adult and”

[6] = tested on: Doxorubicin-induced premature senescent HDF76, HDF161, HDF164; test: Alamar blue viability assay, SIPS vs quiescent HDF, combined data of three donors (FIG. 9, 11); type: cell-based, human
Procedure: as §1, §2, §3

[7] = tested on: Doxorubicin-induced premature senescent RPTEC1; test: Alamar blue viability assay, doxorubicin-induced SIPS vs quiescent RPTEC1 (FIG. 13); type: cell-based, human
Procedure: as §1, §2

[8] = tested on: intracellular levels of AA of HDF161; test: Quantification of intracellular arachidonic acid by ELISA (FIG. 17b); type: cell-based, human; conditions: 10 μM MK886 together with 100 μM Diclofenac for 6 hrs, vs solvent (1% DMSO)
Procedure: The cells were harvested by trypsinization, centrifuged at 1000 g and 4° C. for 5 min and washed three times with cold PBS. The Cells were counted using a Vi-CELL XR (Beckman Coulter) automated cell counter and the cell pellets were resuspended in cold PBS to obtain a cell suspension with 2000-5000 cells/μl. Subsequently the cells were lysed by 30 cycles of sonication (30 s on, 30 s off) in a Bioruptor (Diagenode). Cell debris was removed by 10 min centrifugation at 1500 g and 4° C. and the supernatant was analyzed with an ELISA assay (Novus Biologicals; NBP2-66372) according to the manufacturer's instructions.
In order to verify, whether novel senolytics can be identified in an efficient screen measuring the intracellular levels of AA, an ELISA test (Novus Biologicals; NBP2-66372) was used according to the manufacturer's instructions to first, confirm that novel senolytics identified in the examples above indeed lead to an accumulation of intracellular AA, and second, to screen for compounds, which cause an increase of intracellular levels of AA in senescent HDFs.

cyclooxygenase = conditions: Wang et al. 2000; read-out: IC50 of inhibiting cyclooxygenase activity; cited from earlier work
[9] = tested on: doxorubicin-induced premature senescent HUVECs; test: Alamar blue viability assay, doxorubicin-induced SIPS vs quiescent HUVECs (FIG. 5); type: cell-based, human; conditions: single treatment, 9 days, SIPS vs quiescent (Q) HUVECs
Procedure: as §1, §2
as §3, with “HUVECs” for “adult and foreskin HDFs”, “doxorubicin (Sigma-Aldrich),” for “doxorubicin,”, “Scientific) (FIG. 5).” for “Scientific).”

[10] = tested on: Doxorubicin-induced premature senescent HLF102; test: Alamar blue viability assay, doxorubicin-induced SIPS vs quiescent HLF102 (FIG. 12); type: cell-based, human
Procedure: as §1, §2

[11] = MK886 combined with 50 μM Diclofenac
[12] = increasing MK886 combined with 50 μM Diclofenac
[13] = increasing MK886 combined with 0.4 mM ASA
[14] = single treatment (DQ: 15 μM Quercetin with increasing Dasatinib)
[15] = 12.5 μM ASB14780 added to 1 μM TrC and 1 μM MK886, 72 hours

Sequence of COX-1 (P23219 24-599): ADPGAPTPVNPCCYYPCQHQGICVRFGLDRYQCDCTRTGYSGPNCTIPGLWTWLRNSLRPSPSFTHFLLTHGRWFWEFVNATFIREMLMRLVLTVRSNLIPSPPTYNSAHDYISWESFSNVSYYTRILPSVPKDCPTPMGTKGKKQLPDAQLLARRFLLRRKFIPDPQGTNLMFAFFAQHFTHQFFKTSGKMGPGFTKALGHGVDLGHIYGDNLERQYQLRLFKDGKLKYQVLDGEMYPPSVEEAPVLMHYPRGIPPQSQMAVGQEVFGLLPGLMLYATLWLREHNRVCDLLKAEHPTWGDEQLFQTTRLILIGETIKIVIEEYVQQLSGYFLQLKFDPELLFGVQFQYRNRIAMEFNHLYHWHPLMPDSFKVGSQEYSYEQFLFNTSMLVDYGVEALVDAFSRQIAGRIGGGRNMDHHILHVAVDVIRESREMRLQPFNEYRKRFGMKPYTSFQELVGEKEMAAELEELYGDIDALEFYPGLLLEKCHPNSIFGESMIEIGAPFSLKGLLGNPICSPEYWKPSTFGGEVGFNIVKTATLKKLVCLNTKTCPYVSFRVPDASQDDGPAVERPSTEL

In the case of `CC(C)=CCC[C@]1(C)[C@@H](CC=C(C)C)C[C@@]2(CC=C(C)C)C(=O)[C@]1(C(=O)C(C)C)C(=O)C(CC=C(C)C)=C2O` [hyperforin], the “COX-1 inhibition relative to aspirin” value (COX-1) is listed as 3-18 times.

In the case of `CNc1ccc2oc(C[C@H]3O[C@@]4(CC[C@H]3C)O[C@H]([C@H](C)C(=O)c3ccc[nH]3)[C@H](C)C[C@H]4C)nc2c1C(=O)O` [A23187], the “effect on the senolytic effect of 1 μM TrC and 1 μM MK886” value ([1]; 2.5 μM A23187 added, 72 hours) is reported as “abolishing the senolytic effect”.

With `CC(C)c1ccc2c(c1)c(SC(C)(C)C)c(CC(C)(C)C(=O)O)n2Cc1ccc(Cl)cc1` [MK886] the senolytic effect [2] was “significant senolytic effect”, the “fold change between the EC50 of senescent versus quiescent cells” value (“fold change between the EC50” below) ([3]; MK886 as single treatment) was 1.58 fold and the EC50 ([3]; MK886 as single treatment) was 26.4 µM. For the same compound, the “fold change between the EC50” value ([3]; MK886 combined with 2 μM Celecoxib) was 2.55 fold, the “fold change between the EC50” value [3, 11] was 2.53 fold and the “fold change between the EC50” value ([3]; MK886 combined with 0.4 mM ASA) was 1.95 fold. The EC50 ([3]; increasing MK886 combined with 2 μM Celecoxib) was 17 µM, the EC50 [3, 12] was 9 µM and the EC50 [3, 13] was 18.8 µM. The “fold change between the EC50” value ([4]; MK886 as single treatment) was 1.31 fold, the EC50 ([4]; MK886 as single treatment) was 34.7 µM and the “fold change between the EC50” value [4, 11] was 1.61 fold. The “fold change between the EC50” value ([4]; MK886 combined with 100 μM Diclofenac) was 1.88 fold, the “fold change between the EC50” value ([4]; MK886 combined with 200 μM Diclofenac) was 1.64 fold and the “fold change between the EC50” value ([4]; MK886 combined with 0.4 mM ASA) was 1.46 fold. The “fold change between the EC50” value ([4]; MK886 combined with 0.4 mM ASA and 5 μM Oligomycin A) was 4.51 fold, the EC50 [4, 12] was 17.3 µM and the EC50 ([4]; increasing MK886 combined with 100 μM Diclofenac) was 11.2 µM. For the same compound, the EC50 ([4]; increasing MK886 combined with 200 μM Diclofenac) was 8.39 µM, the EC50 ([4]; increasing MK886 combined with 0.4 mM ASA and 5 μM Oligomycin A) was 9.9 µM and the EC50 [4, 13] was 30.4 µM. For the same compound, the “fold change between the EC50” value ([5]; MK886 as single treatment) was 1.49 fold, the EC50 ([5]; MK886 as single treatment) was 34 µM and the “fold change between the EC50” value [5, 11] was 2.52 fold. For the same compound, the “fold change between the EC50” value ([5]; MK886 combined with 0.4 mM ASA) was 1.51 fold, the “fold change between the EC50” value ([5]; MK886 combined with 0.4 mM ASA and 2 μM CsA) was 2.81 fold and the EC50 [5, 12] was 12.4 µM. For the same compound, the EC50 ([5]; increasing MK886 combined with 0.4 mM ASA and 2 μM CsA) was 14.9 µM, the EC50 [5, 13] was 29.6 µM and the senolytic effect ([6]; increasing MK886 combined with 0.5 μM TrC (dual inhibition of ACSL4 and ALOX5)) was “significant senolytic effect”. For the same compound, the senolytic effect [6, 14] was “not significant”, the “EC50 fold change between senescent and quiescent cells” value ([7]; increasing MK886 combined with 0.1 μM TrC and 25 μM Diclofenac) was “around 700 fold” and the “EC50 fold change between senescent and quiescent cells” value ([7]; increasing MK886 combined with 25 μM Diclofenac) was 5.11 fold. For the same compound, the “EC50 fold change between senescent and quiescent cells” value ([7]; single treatment) was 2.66 fold and the “intracellular AA levels” value [8] was “increased”.

In the case of `O=c1c(O)c(-c2ccc(O)c(O)c2)oc2cc(O)cc(O)c12` [Quercetin], the IC50 (cyclooxygenase) is listed as no less than 100 µM.

With `CC1(C)CCC(c2ccc(Cl)cc2)=C(CN2CCN(c3ccc(C(=O)NS(=O)(=O)c4ccc(N[C@H](CCN5CCOCC5)CSc5ccccc5)c(S(=O)(=O)C(F)(F)F)c4)cc3)CC2)C1` [Navitoclax] the senolytic effect [9] was “significant senolytic effect” and the senolytic effect [6, 14] was “no senolytic effect”.

For `CCC/C=C/C/C=C/C=C/C=N/NN=O` [TrC, Triacsin C], the senolytic effect [6, 14] was “significant senolytic effect”, the “EC50 fold change between senescent and quiescent cells” value ([10]; TrC as single treatment) was 9.19 fold and the “EC50 fold change between senescent and quiescent cells” value ([10]; increasing TrC combined with 1 μM MK886 and 50 μM Diclofenac) was 13.75 fold. The “EC50 fold change between senescent and quiescent cells” value ([7]; single treatment) was “around 350 fold”.

In the case of `CC1(C)Cc2c(-c3ccccc3)c(-c3ccc(Cl)cc3)c(CC(=O)O)n2C1` [Licofelone], the senolytic effect [9] is reported as “significant senolytic effect”.

With `NC(CO)(CO)CO.O=C(O)CCc1ccc2c(c1)c(CCc1ccccc1)cn2-c1ccc(Oc2ccccc2)cc1` [ASB14780] the “effect on the cytotoxic effect of TrC and MK886 on senescent cells” value [1, 15] was “reduced the cytotoxic effect” and the “viability of quiescent cells” value [1, 15] was “only affected to a minor extent”.

In the case of `O=C(O)Cc1ccccc1Nc1c(Cl)cccc1Cl` [Diclofenac], the “EC50 fold change between senescent and quiescent cells” value ([7]; single treatment) is reported as 3.02 fold.

With `CC(=O)Oc1ccccc1C(=O)O` [ASA, acetylsalicylic acid] the senolytic effect [2] was “significant senolytic effect” and the senolytic effect [9] was “significant senolytic effect”.
